Test results as given in patent publication US11147272B2, “Pyridone compounds and agricultural and horticultural fungicides comprising the same as active ingredients” (MITSUI CHEMICALS AGRO, INC., priority 2017, dated 2021).

Columns and labels:
Alternaia brassicicola = test: Test Example C: Alternaria sooty spot on cabbage; format: in vivo; settings: Alternaria sooty spot on cabbage; class of control value
Description: Seeds of a test plant (cabbage variety: Shikidori) were planted and cultivated until the cotyledons extended.
<Control Value> Control value=100{1−(n/3)}

Puccinia recondita = test: Test Example E: Brown rust on wheat; format: in vivo; settings: Brown rust on wheat; class of control value
Magnaporthe grisea = test: whole plant or invertebrate; format: in vivo; settings: Blast on rice; class of control value
Plasmopara viticola = test: Test Example G: Downy mildew on vine; settings: Downy mildew on vine (Neomuscat); 250 ppm spray, 2.5 ml/pot; assessed 7 to 10 days after inoculation
Description: Seeds of a test plant (grape variety: Neomuscat) were planted and cultivated until three to four first leaves appeared. In the test, the inventive compounds were dissolved into dimethyl sulfoxide-methanol mixture solution (volume ratio: 9/1), and the resultant solutions were diluted with well water to a concentration of 250 ppm to obtain the drug solutions. The drug solutions were sprayed to the test plant (2.5 ml/pot). After the drug solutions dried, a zoosporangia suspension (1-2×10^4 zoosporangia/ml) of Plasmopara viticola was inoculated to the plant by spraying. After the inoculation, the plant was kept in a mist chamber at room temperature of 20° C. for about 24 hours to promote the onset of disease. The degrees of disease development were investigated 7 to 10 days after the inoculation, and the effectiveness of the drug solutions was evaluated.
(§1) In Test Examples described above, the degrees of disease development were evaluated in increments of 0.05 from 0 (as no incidence of disease) to 3 (as the degree of disease development in an untreated plant group). Further, control values were calculated using the following equation based on the degree of disease development.
(§2) n=Degree of disease development in each treated group

[1] = system: Blumeria graminis f. sp. hordei; test: Test Example D: Powdery mildew on barley; settings: Powdery mildew on barley; class of control value
[2] = system: Colletotrichum orbiculare; test: Test Example H: Anthracnose on cucumber; settings: Anthracnose on cucumber (Sagami Hanjiro); 250 ppm spray, 2.5 ml/pot; assessed 6 to 10 days after inoculation
Botrytis cinerea = test: Test Example B: Gray mold on tomato; settings: Gray mold on tomato; class of control value
Description: Seeds of a test plant (tomato variety: Oogata Fukuju) were planted and cultivated until three to five first leaves (true leaves) appeared. In the test, the inventive compounds were dissolved into dimethyl sulfoxide-methanol mixture solution (volume ratio: 9/1), and the resultant solutions were diluted with well water to a concentration of 250 ppm to obtain the drug solutions. The drug solutions were sprayed to the test plant (2.5 ml/pot). After the drug solutions dried, a conidial suspension (4-8×10^5 conidia/ml) of Botrytis cinerea was inoculated to the plant by spraying. After the inoculation, the plant was kept in a mist chamber at room temperature of 20 to 23° C. for about 48 hours to promote the onset of disease. The degrees of disease development were investigated 2 to 3 days after the inoculation, and the effectiveness of the drug solutions was evaluated.
as §1, §2
In the table, H: more than 50% control value, L: 50% or less control value, and nt: not tested.

Phytophthora infestans = test: whole plant or invertebrate; format: in vivo; settings: Late blight on tomato; class of control value

SMILES	Test C control value class (Alternaia brassicicola)	Test E control value class (Puccinia recondita)	Test A control value class (Magnaporthe grisea)	Test G control value class (Plasmopara viticola)	Test D control value class [1]	Test H control value class [2]	Test B control value class (Botrytis cinerea)	Test F control value class (Phytophthora infestans)
CCn1c(-c2c(F)cc(F)cc2F)c(CN(C)C)cc(Cl)c1=O [compound 91]	L (50% or less control value)	H (more than 50% control value)	L (50% or less control value)	L (50% or less control value)	L (50% or less control value)	H (more than 50% control value)	L (50% or less control value)	L (50% or less control value)
CCn1c(-c2c(F)cc(OC)cc2F)c(CN(C)C)cc(Cl)c1=O [compound 92]	H (more than 50% control value)	H (more than 50% control value)	H (more than 50% control value)	L (50% or less control value)	L (50% or less control value)	H (more than 50% control value)	L (50% or less control value)	L (50% or less control value)
CCn1c(-c2c(F)cc(OC)cc2F)c(CN(C)OC)cc(Cl)c1=O [compound 94]	H (more than 50% control value)	H (more than 50% control value)	H (more than 50% control value)	H (more than 50% control value)	H (more than 50% control value)	H (more than 50% control value)	H (more than 50% control value)	H (more than 50% control value)
CCn1c(-c2c(F)cccc2OC)c(CC(C)C)ccc1=O [compound 95]	L (50% or less control value)	H (more than 50% control value)	L (50% or less control value)	L (50% or less control value)	H (more than 50% control value)	L (50% or less control value)	H (more than 50% control value)	H (more than 50% control value)
CCn1c(-c2c(F)cccc2OC)c(CC(C)C)cc(Br)c1=O [compound 96]	H (more than 50% control value)	H (more than 50% control value)	L (50% or less control value)	L (50% or less control value)	H (more than 50% control value)	H (more than 50% control value)	H (more than 50% control value)	L (50% or less control value)
CCn1c(-c2c(F)cccc2OC)c(CC(C)C)cc(Cl)c1=O [compound 97]	H (more than 50% control value)	H (more than 50% control value)	H (more than 50% control value)	L (50% or less control value)	H (more than 50% control value)	H (more than 50% control value)	H (more than 50% control value)	L (50% or less control value)
CCn1c(-c2ccc(F)cc2Cl)c(CC(C)C)cc(Br)c1=O [compound 100]	H (more than 50% control value)	H (more than 50% control value)	H (more than 50% control value)	H (more than 50% control value)	H (more than 50% control value)	H (more than 50% control value)	H (more than 50% control value)	L (50% or less control value)
CCn1c(-c2c(O)cccc2F)c(CC(C)C)cc(Cl)c1=O [compound 101]	L (50% or less control value)	H (more than 50% control value)	L (50% or less control value)	H (more than 50% control value)	L (50% or less control value)	L (50% or less control value)	H (more than 50% control value)	H (more than 50% control value)
C#CCOc1cccc(F)c1-c1c(CC(C)C)cc(Cl)c(=O)n1CC [compound 102]	H (more than 50% control value)	H (more than 50% control value)	H (more than 50% control value)	H (more than 50% control value)	H (more than 50% control value)	H (more than 50% control value)	H (more than 50% control value)	L (50% or less control value)
CCn1c(-c2c(F)cccc2OCOC)c(CC(C)C)cc(Cl)c1=O [compound 103]	H (more than 50% control value)	H (more than 50% control value)	H (more than 50% control value)	H (more than 50% control value)	H (more than 50% control value)	H (more than 50% control value)	H (more than 50% control value)	L (50% or less control value)
C=CCOc1cccc(F)c1-c1c(CC(C)C)cc(Cl)c(=O)n1CC [compound 104]	L (50% or less control value)	L (50% or less control value)	H (more than 50% control value)	H (more than 50% control value)	H (more than 50% control value)	H (more than 50% control value)	H (more than 50% control value)	L (50% or less control value)
CCn1c(-c2c(F)cccc2OCSC)c(CC(C)C)cc(Cl)c1=O [compound 105]	H (more than 50% control value)	L (50% or less control value)	H (more than 50% control value)	H (more than 50% control value)	L (50% or less control value)	H (more than 50% control value)	H (more than 50% control value)	L (50% or less control value)
CCn1c(-c2c(F)cc(F)cc2F)c(C(C)(C)OC)cc(Cl)c1=O [compound 109]	H (more than 50% control value)	H (more than 50% control value)	H (more than 50% control value)	L (50% or less control value)	H (more than 50% control value)	H (more than 50% control value)	H (more than 50% control value)	L (50% or less control value)
CCn1c(-c2ccc(OC)cc2F)c(CC(C)C)ccc1=O [compound 111]	H (more than 50% control value)	H (more than 50% control value)	H (more than 50% control value)	H (more than 50% control value)	H (more than 50% control value)	H (more than 50% control value)	H (more than 50% control value)	L (50% or less control value)
CCn1c(-c2c(F)cc(F)cc2F)c(CNOC)cc(Cl)c1=O [compound 112]	H (more than 50% control value)	H (more than 50% control value)	L (50% or less control value)	L (50% or less control value)	H (more than 50% control value)	H (more than 50% control value)	H (more than 50% control value)	L (50% or less control value)
CCn1c(-c2c(F)cc(OC)cc2F)c(C(C)(C)OC)cc(Cl)c1=O [compound 113]	H (more than 50% control value)	H (more than 50% control value)	H (more than 50% control value)	L (50% or less control value)	L (50% or less control value)	H (more than 50% control value)	H (more than 50% control value)	L (50% or less control value)
